Experimental data: patent US20120035187A1 (priority 2009, published 2012)
Read-outs that look alike come from different tables or passages of the source. Marks after values point to notes of the source that are not given here.

Key:
[1] = test system: PC12-HS cells; format: cell-based, rat
[2] = test system: PC12-HS cells; assay: Apoptosis induced by amyloid β fragment, Hoechst 33258 staining; format: cell-based, rat; conditions: 50 μM amyloid β fragment, NK-4 200 ng/ml
Description: A plurality of peptide fragments (called “AMYLOID β FRAGMENT” commercialized by AnaSpec, Inc., CA, USA, each peptide having the amino acid sequence of SEQ ID NO:1), which have an amino acid sequence positioning from 25th to 35th from the N-terminus of amyloid R peptide with human origin and have been recognized as a main factor of neurocyte death in Alzheimer's disease, were diluted with phosphate buffered saline (PBS) to give a concentration of 2 mM, and used after being aged at 37° C. for six hours to coagulate them to increase their cytotoxicity before use. […] Viability (%) of cells in each well was determined and shown in Table 1 by calculating a relative value when the fluorescent intensity of the control was regarded as 100%. […] Thereafter, the cells were stained with […] Hoechst 33258 dye commercialized by SIGMA Corporation, Tokyo, Japan, for five min, observed at a magnitude corresponding to a visual filed containing about 100 cells under a phase contrast microscope and a fluorescent microscope, and counted. The occupied percentage (%) of cells with apoptosis against the total cells in one visual field was calculated and the data was also shown in Table 1. […]

[3] = test system: PI3K-Akt cascade; assay: Actions of NK-4 on PC12-HS cells in presence of K252a or LY294002; format: cell-based, rat; conditions: concrete data omitted
[4] = test system: SAPK/JNK; assay: Phosphorylation of SAPK/JNK by hydrogen-peroxide-induced cell injury; format: cell-based
[5] = Body weight of hamsters with cerebellar ataxia during administration; format: in vivo, hamster; conditions: compared between groups administered with PBS, NK-4 and IGF-1
[6] = Hydroxyl radical-scavenging activity, ESR (Fenton reaction)
Description: Stock solutions, prepared by dissolving NK-4, NK-19, NK-53, NK-100, and NK-557 in DMSO, were respectively diluted with refined water to give concentrations of 3-folds higher than those in Table 14 and used as test sample solutions. As a positive control, a neuroprotectant, “edaravone”, commercialized as “RADICUT®” containing 3-methyl-1-phenyl-2-pyrazoline-5-one as an effective ingredient by Mitsubishi Tanabe Pharma Corporation, Osaka, Japan, was diluted with refined water to give a concentration of 3-folds higher than that in Table 14 for use. To 50 μl of refined water, 50 μl of 89 mM DMPO ([…]) commercialized by Dojindo Laboratories, Kumamoto, Japan, 50 μl of the test sample solution, and 50 μl of an aqueous solution containing 1 mM hydrogen peroxide, 1 mM FeSO4, and 1 mM DTPA, commercialized by Wako Pure Chemical Industries, Osaka, Japan, were added, mixed for 10 seconds using a vortex mixer and allowed to react in an incubator controlled at 37° for 40 seconds. After 30 seconds from completion of the reaction, the resulting reaction mixture was subjected to ESR measurement. A control solution was prepared by the same method as above except for using 50 μl of a diluted edaravone solution as a substitute for the test sample solution, and subjected to ESR measurement.
(§1) The reaction mixture for measuring hydroxyl or peroxyl radicals was poured into a flat quartz cell for ESR, set to “FREE RADICAL MONITOR JES-FR30”, an ESR apparatus commercialized by JOEL Ltd., Tokyo, Japan, and ESR was measured according to manual manner. The residual ratio of peroxyl radical (%) was determined as a relative value by defining the ESR value, obtained by using 0.1 M phosphate buffer as a substitute of the test sample solution, as 100. The results are in Tables 14 and 15. […] Therefore, the IC50 of edaravone was determined by another test using its higher concentration, and the result is also shown in Table 14. The conditions of the ESR measurement were set as follows: […]

[7] = Peroxyl radical-scavenging activity, ESR (AAPH)
Description: Stock solutions, prepared by dissolving NK-4, NK-19, NK-53, NK-100, and NK-557 in DMSO, were respectively diluted with 0.1 M phosphate buffer to give concentrations of […] higher than those in Table 15 and used as test sample solutions. To 50 μl of 0.1 M phosphate buffer (pH 7.4), 50 μl of 180 mM DMPO ([…]) commercialized by Dojindo Laboratories, Kumamoto, Japan, 50 μl of any one of the test sample solutions, and 50 μl of 100 mM AAPH, commercialized by Wako Pure Chemical Industries, Osaka, Japan, were added, mixed for 10 seconds using a vortex mixer and allowed to react in an incubator controlled at 37° for two minutes and 50 seconds. After 30 seconds from completion of the reaction, the resulting reaction mixture was subjected to ESR measurement.
as §1

[8] = test system: APP Tg mouse; assay: Water maze test, APP transgenic mouse; format: in vivo; conditions: for Water maze test 1st day / Water maze test 2nd day / Water maze test 3rd day / Water maze test 4th day: time required for arriving the platform
[9] = test system: C57BL/6J mice with cerebrovascular dementia; assay: Novelty object recognition test, mouse with cerebrovascular dementia (ligation of right common carotid artery); format: in vivo; conditions: for Object discrimination index: mice with ligation of right common carotid artery, NK-4 i.p. five days a week
[10] = test system: PC12-HS cells
Description: The cells were cultured with a serum-free medium as a nutrition-starvation-condition. PC12-HS cells were subjected to tests after stock cultured cells thereof were thawed and cultured with a D-MEM medium supplemented with 10% by volume of fetal bovine serum (FBS). […] As a control, cells were cultured with a NK-4 free D-MEM medium and, similarly as above, cultured after the addition of an ALAMAR BLUE solution commercialized by Trek Diagnostic Systems Inc., Ohio, USA, and measured for fluorescent intensity for each well. Relative values for cells in each well were determined when the fluorescent intensity for control was regarded as 100%, and the data are also shown in Table 1 as survival percentages (%) of cells in each well.

[11] = concentration of compound 2.5 μg/ml
[12] = concentration of compound 3.13 μg/ml
[13] = concentration of compound 6.25 μg/ml
[14] = concentration of compound 12.5 μg/ml
[15] = compound concentration 25 μg/ml
[16] = compound concentration 50 μg/ml

CCN1C=CC(=CC=C(C=Cc2cc[n+](CC)c3ccccc23)c2cc[n+](CC)c3ccccc23)c2ccccc21.[I-].[I-] [NK-4]
Survibal percentage of cells when admixed with cytotoxic factor (%) Hydrogen peroxide ([1]; NK-4 50 ng/ml): 50% | Survibal percentage of cells when admixed with cytotoxic factor (%) Hydrogen peroxide ([1]; NK-4 500 ng/ml): 50% | Survibal percentage of cells when admixed with cytotoxic factor (%) Hydrogen peroxide ([1]; NK-4 5000 ng/ml): 70 ** % | Survibal percentage of cells when admixed with cytotoxic factor (%) Hydrogen peroxide ([1]; NK-4 50000 ng/ml): 90 ** % | concentration required for protection action against hydrogen peroxide injury ([1]; PC12-HS cells): 5,000 ng/ml | Survibal percentage of cells when admixed with cytotoxic factor (%) Hydrogen peroxide ([1]; PC12-HS cells, 200 μM hydrogen peroxide, 2 hours, NK-4 5 ng/ml): 51% | Percentage of appoptosis-induced cells (%) Amyloid β fragment [2]: 13 ** % | inhibition by K252a of the actions of NK-4 on PC12-HS cell growth promotion and neurite outgrowth ([3]; K252a, protein kinase inhibitor specific to TrkA): did not inhibit | inhibition by LY294002 of the action of NK-4 ([3]; LY294002, PI3K inhibitor): is inhibited by LY294002 | phosphorylation of SAPK/JNK [4]: inhibits the phosphorylation of SAPK/JNK | body weight of hamsters with cerebellar A, weighed once every week up to 10-weeks of age [5]: no significant difference | IC50 (μg/ml) of hydroxyl radical-scavenging activity [6]: 6.7 µg/mL | Residual ratio of hydroxyl radical (%) [6, 11]: 15 ± 1 % | Residual ratio of hydroxyl radical (%) [6, 12]: 67 ± 1 % | Residual ratio of hydroxyl radical (%) [6, 13]: 49 ± 2 % | Residual ratio of hydroxyl radical (%) [6, 14]: 26 ± 1 % | IC50 (μg/ml) of peroxyl radical-scavenging activity [7]: 4.7 µg/mL | Residual ratio of peroxyl radical (%) ([7]; compound concentration 5 μg/ml): 46 ± 9 % | Residual ratio of peroxyl radical (%) [7, 15]: 17 ± 1 % | Residual ratio of peroxyl radical (%) [7, 16]: 16 ± 0 % | Water maze test 1st day ([8]; dose 100 μg/kg body weight): 101 ± 38 | Water maze test 2nd day ([8]; dose 100 μg/kg body weight): 73 ± 13 | Water maze test 3rd day ([8]; dose 100 μg/kg body weight): 59 ± 10 | Water maze test 4th day ([8]; dose 100 μg/kg body weight): 34 ± 10 | Water maze test 1st day ([8]; dose 500 μg/kg body weight): 116 ± 3 | Water maze test 2nd day ([8]; dose 500 μg/kg body weight): 63 ± 12 | Water maze test 3rd day ([8]; dose 500 μg/kg body weight): 40 ± 7 | Water maze test 4th day ([8]; dose 500 μg/kg body weight): 27 ± 7 | water maze test (in words) ([8]; i.p. five times a week for 12 weeks): improved the dementia | adverse effect ([9]; mice with cerebrovascular dementia, i.p. five days a week): No adverse effect | Object discrimination index ([9]; On the 3rd week after operation): 0.51 ± 0.22 | Object discrimination index ([9]; On the 4th week after operation): 0.31 ± 0.20 | Survibal percentage of cells when admixed with cytotoxic factor (%) Nutrition starvation ([10]; NK-4 500 ng/ml): 78 ** % | Survibal percentage of cells when admixed with cytotoxic factor (%) Nutrition starvation ([10]; NK-4 5000 ng/ml): 64 ** % | concentration required for protection action against nutrition starvation ([10]; PC12-HS cells): 500 ng/mL | Survibal percentage of cells when admixed with cytotoxic factor (%) Nutrition starvation ([10]; PC12-HS cells, FBS-free medium, 3 days, NK-4 50 ng/ml, control free of cytotoxic factor = 100): 47%

CC[n+]1ccccc1/C=C/c1ccc(N(C)C)cc1 [NK-557]
IC50 (μg/ml) of hydroxyl radical-scavenging activity [6]: 6.2 µg/mL | Residual ratio of hydroxyl radical (%) [6, 11]: 15 ± 6 % | Residual ratio of hydroxyl radical (%) [6, 12]: 71 ± 1 % | Residual ratio of hydroxyl radical (%) [6, 13]: 50 ± 1 % | Residual ratio of hydroxyl radical (%) [6, 14]: 30 ± 1 % | IC50 (μg/ml) of peroxyl radical-scavenging activity [7]: 50< μg/ml | Residual ratio of peroxyl radical (%) ([7]; compound concentration 5 μg/ml): 90 ± 9% | Residual ratio of peroxyl radical (%) [7, 15]: 58 ± 5 % | Residual ratio of peroxyl radical (%) [7, 16]: 66 ± 8 %

CCN1/C(=C/C=C(/C=C/c2sc3ccccc3[n+]2CC)c2sc3ccccc3[n+]2CC)Sc2ccccc21.[I-].[I-] [NK-100]
IC50 (μg/ml) of hydroxyl radical-scavenging activity [6]: 6.6 µg/mL | Residual ratio of hydroxyl radical (%) [6, 11]: 8 ± 0 % | Residual ratio of hydroxyl radical (%) [6, 12]: 68 ± 1 % | Residual ratio of hydroxyl radical (%) [6, 13]: 51 ± 1 % | Residual ratio of hydroxyl radical (%) [6, 14]: 32 ± 1 % | IC50 (μg/ml) of peroxyl radical-scavenging activity [7]: 50< μg/ml | Residual ratio of peroxyl radical (%) ([7]; compound concentration 5 μg/ml): 86 ± 15% | Residual ratio of peroxyl radical (%) [7, 15]: 86 ± 15% | Residual ratio of peroxyl radical (%) [7, 16]: 76 ± 7 %
